The source of these data is article PMC4464269, “Potential of acylated peptides to target the influenza A virus” (Beilstein Journal of Organic Chemistry, 2015).

The test system of data set [1] is human erythrocytes. In kind it is cell-based.
Data set [2] is classed as physicochemical. Conditions: for hydrodynamic diameter (DLS): Zetasizer Nano ZS, back scattering 173°.
Data set [3] deals with Aichi H3N2 virus (X31) mediated hemagglutination of human erythrocytes. In kind it is cell-based, influenza A virus A/Aichi/2/1968 H3N2 (X31).
For data set [4], the system named is Rostock H7N1 virus mediated hemagglutination of turkey erythrocytes. The format is cell-based, influenza A virus A/FPV/Rostock/34 H7N1.
For data set [5], the system named is infection of MDCK II cells by Aichi H3N2. In kind it is cell-based, influenza A virus A/Aichi/2/1968 H3N2 (X31).
The format of data set [6] is physicochemical. The conditions noted are these: 2 mM in PBS, negative staining with 1% phosphotungstic acid pH 7.4; cryo-TEM gave the same results.
Data set [7] deals with infection of MDCK II cells by Rostock H7N1. In kind it is cell-based, influenza A virus A/FPV/Rostock/34 H7N1.
For data set [8], the system named is human erythrocytes. Nature of the data set: Hemolysis assay. In kind it is cell-based. The conditions noted are these: 2% human erythrocytes, 1 h at 37 °C, absorption of the supernatant at 540 nm; titration, three experiments; for C18-s2s above concentrations of 20 µM. As for the experimental part: To assess how strong membrane incorporation of these peptides can perturb membranes we measured their cell lytic activity in a titration experiment with human erythrocytes. […] For EB the same has been reported by Jones et al..
Figure 7 Hemolytic activity of stearylated peptides and EB. 2% human erythrocytes were incubated for one hour with peptides at 37 °C. After centrifugation, the hemolytic activity was assessed by absorption measurement of the supernatant at 540 nm. Error bars indicate the SEM of three titration experiments.
Peptide inhibitors were serially diluted in PBS, mixed with a 2% human erythrocyte solution, and incubated for 1 h at 37 °C. Afterwards, the mix was centrifuged for 10 min at 1500 x g.
Supernatants were measured for absorption at 540 nm representative for hemoglobin release. Buffer absorbance was subtracted from all data points.
Protection from infection assay
Viral infection inhibition assays were performed using an MTS reagent (Promega). 15,000 MDCK II cells were seeded the day before infection. […] Two hours before the readout, 20 µL MTS solution (Promega) was added to each well and put back to 37 °C for the remaining time. Finally, absorbance at 490 nm was measured by a plate reader (Fluostar optima, BMG) and data were normalized to maximum viral cytotoxicity. […]

The subject of data set [9] is Aichi H3N2. The conditions noted are these: at higher viral titer than used in this paper; ref [14]; read-out: IC50 against Aichi H3N2 in the HAI; cited from earlier work. As for the experimental part: The potential to inhibit binding of influenza viruses to cells can be investigated by the well-established hemagglutination inhibition assay (HAI). All peptides, but the control peptide C18-rs2s were able to inhibit Aichi H3N2 virus mediated hemagglutination already at low micromolar concentrations (Table 2). For EB an IC50 of 20 µM against Aichi H3N2 in the HAI has been determined, however at higher viral titer than we used.

Data set [10] deals with Hongkong H5N1. Conditions: read-out: IC50 against Hongkong H5N1; cited from earlier work.
[11] abbreviates: 20 µM in PBS (10 mM, pH 7.4), volume distribution profile.

“And” between values parts separate entries of the source, which are not always exact repeats. Equal entries are not always repeated. Ends that are not written are not given here. Some results are limits rather than exact numbers.

In [1], “C17H35CO-VMTRPLRA-CONH2 [C18-rs2s, reference compound]” returned a KiA of 4.1 ± 2.1 µM. For the same substance, in [2] (20 µM in PBS (10 mM, pH 7.4)), the “PDI (DLS)” value was 0.328. Also, in data set [2] (setting [11]), the “hydrodynamic diameter (DLS)” value was determined as 818.8 nm. In data set [3], the “KiHAI (Aichi H3N2)” value is given as “no effect”.
“C17H35CO-XXXXXXXXXXXXXXX-CONH2 [C18-PeB^GF, stearylated HA antibody derived antiviral peptide]”: in [1], the KiA is recorded as 100.0 ± 0.0 µM. In addition, the “PDI (DLS)” value in data set [2] (20 µM in PBS (10 mM, pH 7.4)) is listed as 0.454. In addition, in data set [2] (setting [11]), the “share of bigger supramolecular structures (DLS)” value is given as 10–15% and the “hydrodynamic diameter (DLS)” value came out at 16.7 nm. Further, the “size of supramolecular aggregates (DLS)” value in [2] (concentration of 100 µM) is on record as greater than 1 µm. For the same substance, in [4], the “KiHAI (Rostock H7N1)” value was 2.8 µM and 2.8 ± 0.9 µM; the “decrease of the KiHAI value compared with unmodified PeB^GF, H7N1” value is reported as 10 fold. Further, the “enhancement of inhibitory potential in infection inhibition compared with unmodified PeB^GF, Aichi H3N2” value in [5] was “approx. 5 fold”. Moreover, the IC50 (commonly the concentration needed to halve the response being measured) in data set [5] (read-out: IC50, infection inhibition of MDCK cells by Aichi H3N2) worked out at 5.9 µM. Moreover, the “morphology of assemblies (TEM)” value in data set [6] is given as “fibrillar supramolecular arrangement being up to several hundred nanometers long”. In [3], the “KiHAI (Aichi H3N2)” value was 1.2 ± 0.0 µM and the “decrease of the KiHAI value compared with unmodified PeB^GF, Aichi H3N2” value stood at 20 fold. Moreover, the “enhancement of inhibition in infection inhibition compared with unmodified PeB^GF, Rostock H7N1” value in data set [7] was “did not increase”. Moreover, in data set [7] (read-out: IC50, infection inhibition of MDCK cells by Rostock H7N1), the IC50 was determined as 84 µM.
As for “C17H35CO-ARLPRTMV-CONH2 [C18-s2s, stearylated sialic acid mimetic peptide (Matsubara et al. 2010)]”, the KiA in data set [1] is reported as 7.0 ± 0.8 µM. In addition, the “volume size distribution (DLS), in words” value in data set [2] (20 µM in PBS (10 mM, pH 7.4)) was “multimodal”. Also, in [8], the hemolytic activity result is reported as “extremely hemolytic”. Also, the “KiHAI (Aichi H3N2)” value in data set [3] is 0.8 ± 0.5 µM.
RRKKAAVALLPAVLLALLAP-NH2 [EB]: in data set [1], the KiA is listed as 8.6 ± 7.0 µM. Besides, the “KiHAI (Aichi H3N2)” value in data set [3] is 1.6 ± 0.3 µM. Moreover, the IC50 is 20 µM in [9] and 4.5 µM in data set [10].
